Measurements: patent US10028966B2 (Avalyn Pharma Inc., priority 2014, dated 2018)
Like-named read-outs stand apart in the source and are kept apart here. Marks after values point to notes of the source that are not given here.

Key:
[1] = system: LPS-induced pulmonary inflammasome model; experiment: LPS-induced pulmonary inflammasome model (BAL cell counts, BAL IL-1β); format: in vivo, Sprague Dawley rats; settings: for BAL IL-1β, average / BAL cells (%), EO (eosinophil), average / BAL cells (%), LM (lymphocytes), average / BAL cells (%), NP (neutrophils), average / BAL number cells, EO (eosinophil), average / BAL number cells, LM (lymphocytes), average / BAL number cells, NP (neutrophils), average: 24 hours, n = 4; for LPS-induced IL-1β (%): relative to LPS + IT saline = 100
Procedure: To compare the efficacy of intratracheal, direct-lung aerosol administration and oral gavage, the LPS-induced pulmonary inflammasome model was performed. Briefly, Sprague Dawley rats (200-250 grams) were administered a single dose of LPS by the intratracheal route (IT) using a intubation aerosol delivery device. All IT doses were delivered just above the first pulmonary bifurcation. Sham animals were treated with saline. […] Lungs were lavaged and collected bronchial lavage fluid (BAL) was assessed for total cell count, neutrophils, macrophage, eosinophils and lymphocytes. BAL was also assessed for IL-1b.

[2] = cited from earlier work; for Cmax: read-out: oral Cmax in IPF patients
[3] = Osmolality determination and nebulization for taste testing, throat irritation and cough response; settings: for Cough Response? / Throat Irritation?: nebulized
From the text: Selected formulations were subjected to osmolality determination and nebulization for taste testing and throat irritation and or cough response.

[4] = Process temperature development study (60°C dissolution, cooling to 25°C); format: physicochemical
Procedure: […]. […] The final volume of each formulation was 5 mL. […] Each sample was mixed thoroughly and agitated overnight at 60° C. Rapid cooling and step-wise cooling from 60° C. to 25° C. was performed. HPLC analysis was performed on samples taken after overnight incubation and after cooling to 25° C. Prior to HPLC analysis, formulations were filtered via syringe through a 0.45 μm PVDF filter.

[5] = 0.5 mg/kg intratracheal, single dose with LPS, BAL after 24 hours
[6] = 30 mg/kg oral gavage 2 hours before LPS (60-fold larger dose)
[7] = LPS + PO pirfenidone 30.0 mg/kg
[8] = 43.7 mg/mL pirfenidone, 8% EtOH, 16% PG, 0 mM sodium saccharin, 76% phosphate buffer (5 mM), pH 7.0
[9] = 43.7 mg/mL pirfenidone, 8% EtOH, 16% PG, 0.3 mM sodium saccharin, 76% phosphate buffer (5 mM), pH 7.0
[10] = 27.2 mg/mL pirfenidone, 4% EtOH, 8% PG, 88% phosphate buffer (5 mM), pH 6.6
[11] = 34.7 mg/mL pirfenidone, 6% EtOH, 12% PG, 82% phosphate buffer (5 mM), pH 7.0
[12] = 0% EtOH, 8% PG, 0% PS80, 92% phosphate buffer (5 mM), pH 6.6
[13] = 0% EtOH, 8% PG, 0.04% PS80, 92% phosphate buffer (5 mM), pH 6.7
[14] = 4% EtOH, 0% PG, 0.04% PS80, 96% phosphate buffer (5 mM), pH 6.6
[15] = 4% EtOH, 8% PG, 0% PS80, 88% phosphate buffer (5 mM), pH 6.7
[16] = 4% EtOH, 8% PG, 0.04% PS80, 88% phosphate buffer (5 mM), pH 6.7

## Cc1ccc(=O)n(-c2ccccc2)c1 [pirfenidone, 5-methyl-1-phenyl-2-(1H)-pyridone]
[1]; 0.5 mg/kg IT
  lung tissue Cmax (estimated): ~83 mcg/gram
[1]; [5]
  LPS-induced inflammatory cell infiltration (BAL): negated
  reduction of LPS-induced BAL IL-1β levels: 62%
[1]; [6]
  effect on LPS-induced BAL IL-1β levels: no effect
  effect on LPS-induced inflammatory cell infiltration (BAL): no effect
[1]; LPS + IT pirfenidone 0.5 mg/kg
  BAL IL-1β, average: 36.2 pg/mL
  BAL cells (%), EO (eosinophil), average: 0.7%
  BAL cells (%), LM (lymphocytes), average: 1.0%
  BAL cells (%), NP (neutrophils), average: 13.0%
  BAL number cells, EO (eosinophil), average: 0.0 1 × 10e5
  BAL number cells, LM (lymphocytes), average: 0.1 1 × 10e5
  BAL number cells, NP (neutrophils), average: 0.7 1 × 10e5
  LPS-induced IL-1β (%): 38%
[1]; [7]
  BAL IL-1β, average: 105.9 pg/mL
  BAL cells (%), EO (eosinophil), average: 0.6%
  BAL cells (%), LM (lymphocytes), average: 0.9%
  BAL cells (%), NP (neutrophils), average: 36.4%
  BAL number cells, EO (eosinophil), average: 0.3 1 × 10e5
  BAL number cells, LM (lymphocytes), average: 0.3 1 × 10e5
  BAL number cells, NP (neutrophils), average: 13.2 1 × 10e5
  LPS-induced IL-1β (%): 113%
[2]; 801 mg oral pirfenidone, human-measured value
  time plasma level at or greater than 5 mcg/mL: 4 h
[2]; fasting-state
  oral Cmax in IPF patients: about 15.7 mcg/mL
  Cmax: ~84 µM
[2]; oral, fed-state
  increase in Tmax: seven-fold
  reduction in Cmax: ~50%
  reduction in overall exposure: 10-15%
[2]; recommended fed-state
  oral Cmax in IPF patients: about 7.9 mcg/mL
  Cmax: ~42 µM
[3]; [8]
  Osmolality: 3672 mOsmo/Kg
  Cough Response?: No
  Throat Irritation?: No
[3]; [9]
  Osmolality: 3672 mOsmo/Kg
  Cough Response?: No
  Throat Irritation?: No
[3]; calculated, 27.2 mg/mL pirfenidone, 4% EtOH, 8% PG, 88% phosphate buffer (5 mM), pH 6.6
  Osmolality: ~1830* mOsmo/Kg
[3]; calculated, 34.7 mg/mL pirfenidone, 6% EtOH, 12% PG, 82% phosphate buffer (5 mM), pH 7.0
  Osmolality: ~2750* mOsmo/Kg
[3]; [10]
  Cough Response?: No
  Throat Irritation?: No
[3]; [11]
  Cough Response?: No
  Throat Irritation?: No
[4]; [12]
  Observations: dissolution after overnight at 60° C.: Fully dissolved after overnight at
  Observations: time stable at 25° C. before re-crystallization: 60 °C Stable at 25 °C for >4 hours
  Pirfenidone (mg/mL) >60° C., assay content after stepwise cooling to 25° C.: 54.6 mg/mL
  Pirfenidone (mg/mL) >Re-crystal, assay content after stepwise cooling to 25° C. and later re-crystallization: 18.6 mg/mL
[4]; [13]
  Observations: dissolution after overnight at 60° C.: Fully dissolved after overnight at
  Observations: time stable at 25° C. before re-crystallization: 60 °C Stable at 25 °C for >4 hours
  Pirfenidone (mg/mL) >60° C., assay content after stepwise cooling to 25° C.: 52.8 mg/mL
  Pirfenidone (mg/mL) >Re-crystal, assay content after stepwise cooling to 25° C. and later re-crystallization: 22.3 mg/mL
[4]; [14]
  Observations: dissolution after overnight at 60° C.: Fully dissolved after overnight at
  Observations: time stable at 25° C. before re-crystallization: 60 °C Stable at 25 °C for >4 hours
  Pirfenidone (mg/mL) >60° C., assay content after stepwise cooling to 25° C.: 50.7 mg/mL
  Pirfenidone (mg/mL) >Re-crystal, assay content after stepwise cooling to 25° C. and later re-crystallization: 22.4 mg/mL
[4]; [15]
  Observations: dissolution after overnight at 60° C.: Fully dissolved after overnight at
  Observations: time stable at 25° C. before re-crystallization: 60 °C Stable at 25 °C for >4 hours
  Pirfenidone (mg/mL) >60° C., assay content after stepwise cooling to 25° C.: 50.34 mg/mL
  Pirfenidone (mg/mL) >Re-crystal, assay content after stepwise cooling to 25° C. and later re-crystallization: 27.6 mg/mL
[4]; [16]
  Observations: dissolution after overnight at 60° C.: Fully dissolved after overnight at
  Observations: time stable at 25° C. before re-crystallization: 60 °C Stable at 25 °C for >4 hours
  Pirfenidone (mg/mL) >60° C., assay content after stepwise cooling to 25° C.: 51.8 mg/mL
  Pirfenidone (mg/mL) >Re-crystal, assay content after stepwise cooling to 25° C. and later re-crystallization: 26.8 mg/mL
[4]; after dissolution at 60°C
  behaviour on rapid cooling to 25°C: rapid recrystallization
